Data taken from US11129839B2, “Minocycline compounds for biodefense” (priority 2015, dated 2021).
Converted amounts (≈) assume the structure as drawn. Where two headings read alike, the source gives them in different places.

Assays:
Y. pestis [1] = settings: cited from earlier work
B. pseudomallei [2] = settings: cited from earlier work
B. anthracis [3] = settings: cited from earlier work
B. mallei [4] = settings: cited from earlier work
Chlamydia pneumonia = test: microbe, parasite or virus in culture; format: cell-based
Burkholderia cepacia = settings: cited from earlier work
Bacteroides fragilis = settings: cited from earlier work
Streptococcus pneumonia = settings: cited from earlier work
[5] = test system: Enterococcus faecium (VSE); settings: cited from earlier work
B. anthracis AMES strain = test system: B. anthracis AMES strain; design: species or system BALB/c mice; settings: mouse, in vivo; for PD50: ip
[6] = test system: bacteria isolated from clinical specimens; format: cell-based
Haemophilus influenza = settings: cited from earlier work
B. mallei [7] = test: microbe, parasite or virus in culture; format: cell-based
Klebsiella pneumonia = settings: cited from earlier work
[8] = test system: Enterococcus faecium (VRE); settings: cited from earlier work
Streptococcus agalactiae = settings: cited from earlier work
[9] = test system: Enterococcus faecalis (VSE); settings: cited from earlier work
Pseudomonas aeruginosa = settings: cited from earlier work
H. influenza = test: animal or person; format: in vivo, Mice; settings: Mus musculus, read-out: PD50/ED50
Clostridium perfringens = settings: cited from earlier work
F. tularensis = test: microbe, parasite or virus in culture; format: cell-based
E. coli = test: animal or person; format: in vivo, Mice; settings: Escherichia coli, in Mus musculus, read-out: PD50/ED50
E. faecalis = test: animal or person; format: in vivo, Mice; settings: Enterococcus faecalis, in Mus musculus, read-out: PD50/ED50
Acinetobacter baumannii = settings: cited from earlier work
Shigella spp. = settings: cited from earlier work
Clostridium difficile = settings: cited from earlier work
[10] = test system: Coagulase-negative staphylococci; settings: cited from earlier work
Proteus mirabilis = settings: cited from earlier work
Enterobacter aerogenes = settings: cited from earlier work
B. anthracis [11] = test: microbe, parasite or virus in culture; format: cell-based
Moraxella catarrhalis = settings: cited from earlier work
Y. pestis [12] = test: microbe, parasite or virus in culture; format: cell-based
Enterobacter cloacae = settings: cited from earlier work
Y. pestis (C092) = test system: Y. pestis (C092); design: species or system BALB/c mice; settings: mouse, in vivo; for PD50: ip
Salmonella spp. = settings: cited from earlier work
[13] = test system: Staphylococcus aureus (MSSA); settings: cited from earlier work
B. mallei (China 7) = test system: B. mallei (China 7); design: species or system BALB/c mice; settings: mouse, in vivo
Legionella pneumophila = test: microbe, parasite or virus in culture; format: cell-based
Escherichia coli = settings: cited from earlier work
[14] = test system: Streptococcus pneumoniae (PRSP); settings: cited from earlier work
B. pseudomallei [15] = test: microbe, parasite or virus in culture; format: cell-based; settings: Burkholderia pseudomallei
Streptococcus pyogenes = settings: cited from earlier work
[16] = test system: Enterococcus facecalis (VRE); settings: cited from earlier work
[17] = test system: Staphylococcus aureus (MRSA); settings: cited from earlier work

O=C(O)c1cn(C2CC2)c2cc(N3CCNCC3)c(F)cc2c1=O [Ciprofloxacin]
MIC90 (Y. pestis [1]): 0.03125 µg/mL (≈ 0.0943 µM) | MIC range (Y. pestis [1]): 0.0039 to 0.0625 µg/mL | MIC50 (B. pseudomallei [2]): 2 µg/mL (≈ 6.04 µM) | MIC90 (B. pseudomallei [2]): 4 µg/mL (≈ 12.1 µM) | MIC range (B. pseudomallei [2]): 0.5 to 32 µg/mL | MIC50 (B. anthracis [3]): 0.0625 µg/mL (≈ 0.189 µM) | MIC90 (B. anthracis [3]): 0.125 µg/mL (≈ 0.377 µM) | MIC range (B. anthracis [3]): 0.03125 to .25 µg/mL | MIC50 (B. mallei [4]): 0.5 µg/mL (≈ 1.51 µM) | MIC90 (B. mallei [4]): 1 µg/mL (≈ 3.02 µM) | MIC range (B. mallei [4]): 0.0625 to 1 µg/mL

CN(C)c1cc(CNCC(C)(C)C)c(O)c2c1C[C@H]1C[C@H]3[C@H](N(C)C)C(O)=C(C(N)=O)C(=O)[C@@]3(O)C(O)=C1C2=O [Compound A, 9-[(2,2-dimethyl-propylamino)-methyl]minocycline]
MIC50 (Chlamydia pneumonia): 0.25 µg/mL (≈ 0.449 µM) | MIC90 (Chlamydia pneumonia): 0.25 µg/mL (≈ 0.449 µM) | MIC50 (Burkholderia cepacia): 2/4 μg/mL | MIC90 (Burkholderia cepacia): 64/>32 μg/mL | MIC50 (Bacteroides fragilis): 1/8 μg/mL | MIC90 (Bacteroides fragilis): 4/16 μg/mL | MIC50 (Streptococcus pneumonia): 0.12/0.25 μg/mL | MIC90 (Streptococcus pneumonia): 0.12/8 μg/mL | MIC50 [5]: 0.12/0.12 μg/mL | MIC90 [5]: 0.12/16^ μg/mL | percent survival (comparison in words, FIG. 2) (B. anthracis AMES strain): as effective as doxycycline or ciprofloxacin | PD50 (B. anthracis AMES strain): 0.8 (range of 0.6 to 1.1 mg/kg) | effect of serum or lung surfactant on in vitro activity [6]: not affected by serum or lung surfactant | MIC50 (Haemophilus influenza): 0.5/0.5 μg/mL | MIC90 (Haemophilus influenza): 1/1 μg/mL | MIC range (B. mallei [7]): <0.03125 to 0.5 µg/mL | in vitro activity (in words) (B. mallei [7]): highly active | MIC (B. mallei [7]; Burkholderia mallei): 0.25 µg/mL (≈ 0.449 µM) | MIC50 (B. mallei [7]; Burkholderia mallei): 0.125 µg/mL (≈ 0.225 µM) | MIC90 (B. mallei [7]; Burkholderia mallei): 0.25 µg/mL (≈ 0.449 µM) | MIC50 (Klebsiella pneumonia): 2/2 μg/mL | MIC90 (Klebsiella pneumonia): 8/>32 μg/mL | MIC50 [8]: 0.12/8 μg/mL | MIC90 [8]: 0.12/8 μg/mL | MIC50 (Streptococcus agalactiae): 0.25/8 μg/mL | MIC90 (Streptococcus agalactiae): 0.25/16^ μg/mL | MIC50 [9]: 0.25/8 μg/mL | MIC90 [9]: 0.5/8^ μg/mL | MIC50 (Pseudomonas aeruginosa): 32/32 μg/mL | MIC90 (Pseudomonas aeruginosa): 64/32 μg/mL | ED50 (H. influenza): 4.7 mg/kg | MIC50 (Clostridium perfringens): 1/2 μg/mL | MIC90 (Clostridium perfringens): 4/8 μg/mL | MIC range (F. tularensis): 0.5 to 2 µg/mL | in vitro activity (in words) (F. tularensis): significant activity | MIC50 (F. tularensis; Francisella tularensis): 1 µg/mL (≈ 1.8 µM) | MIC90 (F. tularensis; Francisella tularensis): 2 µg/mL (≈ 3.59 µM) | ED50 (E. coli): 4.3 mg/kg | ED50 (E. faecalis): 4.5 mg/kg | MIC50 (Acinetobacter baumannii): 0.25/0.25 μg/mL | MIC90 (Acinetobacter baumannii): 4/2 μg/mL | MIC50 (Shigella spp.): 1/1 μg/mL | MIC90 (Shigella spp.): 2/32 μg/mL | MIC50 (Clostridium difficile): 0.12/0.03 μg/mL | MIC90 (Clostridium difficile): 0.12/1 μg/mL | MIC50 [10]: 0.25/0.25 μg/mL | MIC90 [10]: 1/2 μg/mL | MIC50 (Proteus mirabilis): 16/16 μg/mL | MIC90 (Proteus mirabilis): 32/>32 μg/mL | MIC50 (Enterobacter aerogenes): 2/2 μg/mL | MIC90 (Enterobacter aerogenes): 4/4 μg/mL | MIC range (B. anthracis [11]): <0.03125 to 0.0625 µg/mL | in vitro activity (in words) (B. anthracis [11]): highly active | MIC (B. anthracis [11]; Bacillus anthracis): < 0.03 µg/mL | MIC50 (B. anthracis [11]; Bacillus anthracis): 0.0312 µg/mL (≈ 0.0561 µM) | MIC90 (B. anthracis [11]; Bacillus anthracis): 0.0625 µg/mL (≈ 0.112 µM) | MIC50 (Moraxella catarrhalis): 0.25/0.25 μg/mL | MIC90 (Moraxella catarrhalis): 0.25/0.25 μg/mL | MIC range (Y. pestis [12]): 0.125 to 2 µg/mL | in vitro activity (in words) (Y. pestis [12]): significant activity | MIC (Y. pestis [12]; Yersinia pestis): 1 µg/mL (≈ 1.8 µM) | MIC50 (Y. pestis [12]; Yersinia pestis): 1 µg/mL (≈ 1.8 µM) | MIC90 (Y. pestis [12]; Yersinia pestis): 1 µg/mL (≈ 1.8 µM) | MIC50 (Enterobacter cloacae): 2/4 μg/mL | MIC90 (Enterobacter cloacae): 16/16 μg/mL | percent survival (comparison in words, FIG. 1) (Y. pestis (C092); 40 mg/kg): more effective as doxycycline at 40 mg/kg and is at least as effective or ciprofloxacin at 15 mg/kg | PD50 (Y. pestis (C092)): 23.5 (range of 20.1 to 27.0 mg/kg) | MIC50 (Salmonella spp.): 2/4 μg/mL | MIC90 (Salmonella spp.): 8/32 μg/mL | MIC50 [13]: 0.25/0.12 μg/mL | MIC90 [13]: 0.25/0.25 μg/mL | percent survival (in words, FIG. 3) (B. mallei (China 7)): as effective as doxycycline or azithromycin | MIC50 (Legionella pneumophila): 0.25 µg/mL (≈ 0.449 µM) | MIC90 (Legionella pneumophila): 0.25 µg/mL (≈ 0.449 µM) | MIC50 (Escherichia coli): 2/8 μg/mL | MIC90 (Escherichia coli): 4/>32 μg/mL | MIC50 [14]: 0.12/8 μg/mL | MIC90 [14]: 0.12/8 μg/mL | MIC50 (B. pseudomallei [15]): 64 µg/mL (≈ 115 µM) | MIC90 (B. pseudomallei [15]): > 64 µg/mL | MIC50 (Streptococcus pyogenes): 0.12/25^ μg/mL | MIC90 (Streptococcus pyogenes): 0.12/0.25 μg/mL | MIC50 [16]: 0.12/0.25 μg/mL | MIC90 [16]: 0.25/8 μg/mL | MIC50 [17]: 0.25/0.12 μg/mL | MIC90 [17]: 0.25/2 μg/mL

C[C@H]1c2cccc(O)c2C(=O)C2=C(O)[C@]3(O)C(=O)C(C(N)=O)=C(O)[C@@H](N(C)C)[C@@H]3[C@@H](O)[C@@H]21 [Doxycycline, reference compound]
PD50 (B. anthracis AMES strain): 2.0 (range of 1.4 to 2.6) mg/kg | MIC (B. mallei [7]; Burkholderia mallei): 0.06 µg/mL (≈ 0.135 µM) | MIC (B. anthracis [11]; Bacillus anthracis): 0.03 µg/mL (≈ 0.0675 µM) | MIC (Y. pestis [12]; Yersinia pestis): 0.5 µg/mL (≈ 1.13 µM) | PD50 (Y. pestis (C092)): 29.7 (range of 20.7 to 38.8) mg/kg | MIC50 (Legionella pneumophila): 1 µg/mL (≈ 2.25 µM) | MIC90 (Legionella pneumophila): 1 µg/mL (≈ 2.25 µM)

CC[C@H]1OC(=O)[C@H](C)[C@@H](O[C@H]2C[C@@](C)(OC)[C@@H](O)[C@H](C)O2)[C@H](C)[C@@H](O[C@@H]2O[C@H](C)C[C@H](N(C)C)[C@H]2O)[C@](C)(O)C[C@@H](C)CN(C)[C@H](C)[C@@H](O)[C@]1(C)O [azithromycin, reference compound]
MIC (B. mallei [7]; Burkholderia mallei): 0.5 µg/mL (≈ 0.668 µM)
